According to ChEMBL document CHEMBL4339248, “Secondary Metabolites Produced by Combined Culture of Penicillium crustosum and a Xylaria sp” (J Nat Prod, 2019):
Converted amounts (≈) assume the structure as drawn. Each block holds one compound with its values, some of them ahead of it. The source made the active and inactive calls. The calls are words filed in the database; no cut-off is given here.

Assays:
HL-60 = test: Cytotoxicity in human HL60 cells assessed as reduction in cel viability incubated for 24 or 72 hrs by SRB or MTT assay; format: functional, cell-based
K562 = test: Cytotoxicity in human K562 cells assessed as reduction in cel viability incubated for 24 or 72 hrs by SRB or MTT assay; format: functional, cell-based
Bel-7402 = test: Cytotoxicity in human Bel7402 cells assessed as reduction in cel viability incubated for 24 or 72 hrs by SRB or MTT assay; format: functional, cell-based
HCT-116 = test: Cytotoxicity in human HCT116 cells assessed as reduction in cel viability incubated for 24 or 72 hrs by SRB or MTT assay; format: functional, cell-based
A549 = test: Cytotoxicity in human A549 cells assessed as reduction in cel viability incubated for 24 or 72 hrs by SRB or MTT assay; format: functional, cell-based
HeLa = test: Cytotoxicity in human HeLa cells assessed as reduction in cel viability incubated for 24 or 72 hrs by SRB or MTT assay; format: functional, cell-based
L02 = test: Cytotoxicity in human L02 cells assessed as reduction in cel viability incubated for 24 or 72 hrs by SRB or MTT assay; format: cell-based
MGC-803 = test: Cytotoxicity in human MGC803 cells assessed as reduction in cel viability incubated for 24 or 72 hrs by SRB or MTT assay; format: functional, cell-based
[1] = Cytotoxicity in human HO8910 cells assessed as reduction in cel viability incubated for 24 or 72 hrs by SRB or MTT assay; format: functional, cell-based; conditions: HO-8910
SH-SY5Y = test: Cytotoxicity in human SH-SY5Y cells assessed as reduction in cel viability incubated for 24 or 72 hrs by SRB or MTT assay; format: functional, cell-based
PC-3 = test: Cytotoxicity in human PC3 cells assessed as reduction in cel viability incubated for 24 or 72 hrs by SRB or MTT assay; format: functional, cell-based
MDA-MB-231 = test: Cytotoxicity in human MDA-MB-231 cells assessed as reduction in cel viability incubated for 24 or 72 hrs by SRB or MTT assay; format: functional, cell-based
Penicillium crustosum = test: Antimicrobial activity against Penicillium crustosum PRB-2 assessed as inhibition of microbial growth at 25 ug/disk by disk diffusion test; format: functional, organism-based
Xylaria sp. = test: Antimicrobial activity against Xylaria sp. HDN13-249 assessed as inhibition of microbial growth at 25 ug/disk by disk diffusion test; format: functional
Mycolicibacterium phlei = test: Antimicrobial activity against Mycobacterium phlei by BSAC standardized disc susceptibility testing method; format: functional
Bacillus subtilis = test: Antimicrobial activity against Bacillus subtilis by BSAC standardized disc susceptibility testing method; format: functional
Vibrio parahaemolyticus = test: Antimicrobial activity against Vibrio parahaemolyticus by BSAC standardized disc susceptibility testing method; format: functional

MIC (Mycolicibacterium phlei): 25 µM (≈ 9.11 µg/mL) | MIC (Bacillus subtilis): > 200 µM
Structure (SMILES): CCCCC[C@H](O)CCCCCCCCCCCc1cc(O)cc(O)c1
IC50 (HL-60): > 30 µM | IC50 (K562): > 30 µM | IC50 (Bel-7402): > 30 µM | IC50 (HCT-116): > 30 µM | IC50 (A549): > 30 µM | IC50 (HeLa): > 30 µM | IC50 (L02): > 30 µM | IC50 (MGC-803): > 30 µM | IC50 [1]: > 30 µM | IC50 (SH-SY5Y): > 30 µM | IC50 (PC-3): > 30 µM | IC50 (MDA-MB-231): > 30 µM | growth inhibition (GI) (Penicillium crustosum): inactive | growth inhibition (GI) (Xylaria sp.): inactive | MIC (Vibrio parahaemolyticus): > 200 µM

MIC (Mycolicibacterium phlei): 1.56 µM (≈ 0.517 µg/mL) | MIC (Bacillus subtilis): 1.56 µM (≈ 0.517 µg/mL)
Structure (SMILES): O=C(O)c1cn(C2CC2)c2cc(N3CCNCC3)c(F)cc2c1=O [CIPROFLOXACIN]
MIC (Vibrio parahaemolyticus): 12.5 µM (≈ 4.14 µg/mL)

MIC (Mycolicibacterium phlei): 6.25 µM (≈ 2.55 µg/mL) | MIC (Bacillus subtilis): > 200 µM
Structure (SMILES): CCCCC[C@H](O)CCCCCCCCCCCc1cc(O)cc(O)c1C(=O)O
IC50 (HL-60): > 30 µM | IC50 (K562): > 30 µM | IC50 (Bel-7402): > 30 µM | IC50 (HCT-116): > 30 µM | IC50 (A549): > 30 µM | IC50 (HeLa): > 30 µM | IC50 (L02): > 30 µM | IC50 (MGC-803): > 30 µM | IC50 [1]: > 30 µM | IC50 (SH-SY5Y): > 30 µM | IC50 (PC-3): > 30 µM | IC50 (MDA-MB-231): > 30 µM | growth inhibition (GI) (Penicillium crustosum): inactive | growth inhibition (GI) (Xylaria sp.): inactive | MIC (Vibrio parahaemolyticus): 12.5 µM (≈ 5.11 µg/mL)

Structure (SMILES): CCCCC[C@@H](CCCCCCCCCCCc1cc(O)cc(O)c1C(=O)O)OS(=O)(=O)O
IC50 (HL-60): > 30 µM | IC50 (K562): > 30 µM | IC50 (Bel-7402): > 30 µM | IC50 (HCT-116): > 30 µM | IC50 (A549): > 30 µM | IC50 (HeLa): > 30 µM | IC50 (L02): > 30 µM | IC50 (MGC-803): > 30 µM | IC50 [1]: > 30 µM | IC50 (SH-SY5Y): > 30 µM | IC50 (PC-3): > 30 µM | IC50 (MDA-MB-231): > 30 µM | growth inhibition (GI) (Penicillium crustosum): inactive | growth inhibition (GI) (Xylaria sp.): inactive
